Here are results for 9 molecules from US20210400977A1, “META-DIAMIDE COMPOUNDS FOR CONTROLLING INVERTEBRATE PESTS” (FMC Corporation, priority 2018, published 2021).

Bounds are passed on as bounds.

Series [1] concerns potato leafhopper (Empoasca fabae (Harris)). As to the kind of experiment: Test D: control of potato leafhopper through contact and/or systemic means. The format is in vivo. The note with it: 144 h, assessed after 6 days; for mortality at 50 ppm: sprayed at 50 ppm. The procedure:
(§1) Test compounds were formulated using a solution containing 10% acetone, 90% water and 300 ppm Activator 90® non-ionic surfactant (Loveland Products, Loveland, Colo., USA). The formulated compounds were applied in 1 mL of liquid through an atomizer nozzle positioned 1.27 cm (0.5 inches) above the top of each test unit. Test compounds were sprayed at the rates indicated, and each test was replicated three times.
For evaluating control of potato leafhopper (Empoasca fabae (Harris)) through contact and/or systemic means, the test unit consisted of a small open container with a 5-6-day-old Soleil bean plant (primary leaves emerged) inside. White sand was added to the top of the soil, and one of the primary leaves was excised prior to application of the test compound.
Test compounds were formulated and sprayed at 250 and/or 50 ppm. After spraying of the formulated test compound, the test units were allowed to dry for 1 hour before they were post-infested with 5 potato leafhoppers (18-to-21-day-old adults). A black, screened cap was placed on the top of the test unit, and the test units were held for 6 days in a growth chamber at 20° C. and 70% relative humidity. Each test unit was then visually assessed for insect mortality.

Series [2] has as its system green peach aphid (Myzus persicae (Sulzer)). As to the kind of experiment: Test E: control of green peach aphid through contact and/or systemic means. Type of series: in vivo. The note with it: 144 h, assessed after 6 days; for mortality at 50 ppm: sprayed at 50 ppm. The procedure: as §1
For evaluating control of green peach aphid (Myzus persicae (Sulzer)) through contact and/or systemic means, the test unit consisted of a small open container with a 12-15-day-old radish plant inside. This was pre-infested by placing on a leaf of the test plant 30-40 aphids on a piece of leaf excised from a culture plant (cut-leaf method). The aphids moved onto the test plant as the leaf piece desiccated. After pre-infestation, the soil of the test unit was covered with a layer of sand.
Test compounds were formulated and sprayed at 250 and/or 50 ppm. After spraying of the formulated test compound, each test unit was allowed to dry for 1 hour and then a black, screened cap was placed on top. The test units were held for 6 days in a growth chamber at 19-21° C. and 50-70% relative humidity. Each test unit was then visually assessed for insect mortality.

Series [3] concerns cotton melon aphid (Aphis gossypii (Glover)). As to the kind of experiment: Test F: control of cotton melon aphid through contact and/or systemic means. Type of series: in vivo. The note with it: 144 h, assessed after 6 days; for mortality at 50 ppm: sprayed at 50 ppm.
Series [4] has as its system sweetpotato whitefly (Bemisia tabaci (Gennadius)). Put plainly: Test G: control of sweetpotato whitefly through contact and/or systemic means. The format is in vivo. The settings on record: 312 h, assessed after 13 days; for mortality at 50 ppm: sprayed at 50 ppm; for mortality at 250 ppm: sprayed at 250 ppm. The procedure:
as §1
For evaluating control of the sweetpotato whitefly (Bemisia tabaci (Gennadius)) through contact and/or systemic means, the test unit consisted of a small open container with a 12-14-day-old cotton plant or 7-9-day-old soybean plant inside. Prior to the spray application, both cotyledons were removed from the plant, leaving one true leaf for the assay. Adult whiteflies were allowed to lay eggs on the plant and then were removed from the test unit. Cotton or soybean plants infested with at least 15 eggs were submitted to the test for spraying.
Test compounds were formulated and sprayed at 250 and/or 50 ppm. After spraying, the test units were allowed to dry for 1 hour. The cylinders were then removed, and the units were taken to a growth chamber and held for 13 days at 28° C. and 50-70% relative humidity. Each test unit was then visually assessed for insect mortality.

In series [5] the test system is corn planthopper (Peregrinus maidis (Ashmead)). Put plainly: Test C: control of corn planthopper through contact and/or systemic means. Type of series: in vivo. The settings on record: 144 h, sprayed at 250 ppm, assessed after 6 days. How it is done:
as §1
For evaluating control of corn planthopper (Peregrinus maidis (Ashmead)) through contact and/or systemic means, the test unit consisted of a small open container with a 3-4-day-old corn (maize) plant inside. White sand was added to the top of the soil prior to application of the test compound.
Test compounds were formulated and sprayed at 250 and/or 50 ppm. After spraying of the formulated test compound, the test units were allowed to dry for 1 h before they were post-infested with ˜15-20 nymphs (18-to-21-day-old). A black, screened cap was placed on the top of each test unit, and the test units were held for 6 days in a growth chamber at 22-24° C. and 50-70% relative humidity. Each test unit was then visually assessed for insect mortality.

Usually melting point stands for the temperature, or range, at which the solid turns liquid. The mortality is the percentage killed. A higher mortality goes with a strong lethal effect.

`CN(Cc1cc(NC(=O)C2C(c3cc(Cl)cc(Cl)c3)C2(F)F)ccc1Cl)C(=O)C1CC1` (stereo not drawn) [Compound 32]: the melting point lay within 151 to 155 °C.

Molecule `CC(=O)NCc1ccc(Cl)c(NC(=O)C2C(c3cc(Cl)cc(Cl)c3)C2(Cl)Cl)c1` (stereo not drawn) [Compound 135] returned a melting point of 101 to 105 °C.

In turn, `CC(C)C(=O)NCc1ccc(Cl)c(NC(=O)C2C(c3cc(Cl)cc(Cl)c3)C2(Cl)Cl)c1` (stereo not drawn) [Compound 136] displayed a melting point of 187 to 191 °C.

In the case of `CCC(=O)NCc1cc(NC(=O)C2C(c3cc(Cl)cc(Cl)c3)C2(Cl)Cl)ccc1Cl` (stereo not drawn) [Compound 147], the mortality at 50 ppm in series [1] was at least 80%; in series [2], at least 80%; in series [3], at least 80%; in series [4] it was at least 70%. Further, the mortality at 250 ppm in series [1] (sprayed at 250 ppm) was at least 80%; in series [2] (sprayed at 250 ppm) it was at least 80%; in series [3] (sprayed at 250 ppm), at least 80%; in series [4], at least 70%.

In turn, `CCC(=O)NCc1cc(NC(=O)C2C(c3cc(Cl)cc(Cl)c3)C2(Cl)Cl)ccc1F` (stereo not drawn) [Compound 153] had a mortality at 250 ppm in series [5] of at least 80%. In series [4], this molecule registered a mortality at 50 ppm of at least 70% and a mortality at 250 ppm of at least 70%.

On to `O=C(Nc1ccc(Cl)c(CNC(=O)C(F)(F)F)c1)C1C(c2ccc(F)c(C(F)(F)F)c2)C1(Cl)Cl` (stereo not drawn) [Compound 174, 2,2-dichloro-N-[4-chloro-3-[[(2,2,2-trifluoroacetyl)amino]methyl]phenyl]-3-[4-fluoro-3-(trifluoromethyl)phenyl]cyclopropanecarboxamide], for which the mortality at 50 ppm in series [1], in series [2] and in series [3] was at least 80% each time. The molecule further had a mortality at 250 ppm in series [4] of at least 70%.

Take `CC(=O)NCc1nc(NC(=O)C2C(c3ccc(F)c(Cl)c3)C2(Cl)Cl)ccc1Br` (stereo not drawn) [Compound 247]: the melting point was in the range of 170 to 173 °C.

`O=C(NCc1nc(NC(=O)C2C(c3ccc(F)c(Cl)c3)C2(Cl)Cl)ccc1Br)C1CC1` (stereo not drawn) [Compound 254] showed a melting point of 152 to 155 °C.

In turn, `O=C(CC(F)(F)F)NCc1nc(NC(=O)C2C(c3ccc(F)c(Cl)c3)C2(Cl)Cl)ccc1Br` (stereo not drawn) [Compound 256] gave a melting point of 184 to 187 °C.
